The data set is described as follows: Tumour pharmacokinetics: fenretinide and metabolite levels in plasma and tumours of xenografted mice. It is filed as in vivo. The conditions noted are these: for concentration at 3 h: female, mouse, oral. Here is the method:
The determination of fenretinide in plasma of mice and the others biological samples was determined according to a method specifically developed and validated for the quantification of fenretinide (4-HPR) based on liquid chromatography-tandem mass spectrometry (LC–MS/MS) (manuscript in preparation). The procedure of sample preparation and quantification can be summarized as follows. 30 μL aliquot of plasma was added with 3 ng of deuterated internal standard (^2H4 4-HPR), deproteinized by mean of 90 μL of acetonitrile and centrifuged 5 min at 13200 rpm at room temperature. The supernatant was recovered and 5 μL injected into a HPLC system (Series 200, Perkin Elmer, MA, USA). Chromatographic separation was achieved on a Gemini-C18 column (50 mm × 2.0 mm, 5 μm particle size; Phenomenex Inc., Torrance, CA, USA) at 32 °C protected with a Security Guard™ ULTRA cartridges C18. The detection obtained by Mass spectrometric detection was carried out on a triple quadrupole API 4000 mass spectrometer (Sciex, MA, USA) equipped with atmospheric pressure chemical ionization source (APCI) operating in positive ion mode monitoring the transitions 392.3 > 283.2 m/z for 4-HPR and 396.3 > 283.2 m/z for the deuterated internal standard. To assay study samples, a calibration curve of six points (range: 1.0–500.00 ng/mL) was prepared in control mouse plasma assessing the precision and the accuracy of the run analyzing at the same time a set of freshly prepared quality controls samples. The Limit Of Quantification of the method was 1 ng/mL in plasma and urine and 50 ng/g in faeces.
Cell suspensions of lung and colon cancer and melanoma CSC lines were mixed 1:1 with Growth Factor-Reduced Matrigel (Beckton Dickinsons) and injected subcutaneously in both flanks of 5-week-old female NOD-SCID (non-obese diabetic/severe combined immunodeficiency) mice in the case of colon and melanoma or NSG (non-obese diabetic/severe combined immunodeficiency gamma chain deficient) mice in the case of lung (Charles River, Wilmington, MA, USA). For drug treatment, when tumours reached a mean diameter of 0.5 cm, groups of 6 mice were randomized into 3 groups and treated with vehicle, with Bio-nFeR (50,100 or 150 mg/kg as described) freshly dissolved in sterile water or with the standard formulation NCI-FeR that reproduce NCI capsule (50 or 100 mg/Kg). Treatments were administered by oral gavage 5 days on and 2 days off for 3 weeks. Tumours were measured twice a week using a caliper, and mice were monitored for signs of drug-induced toxicity and weighed regularly. At the end of treatments, in a study paralleling the assessment of antitumour activity, tumours and blood samples were collected for pharmacokinetic and molecular studies 3 hours after the last drug administration. Collection of blood, plasma separation and storing were as previously described. Immediately after blood collection mice were sacrificed by cervical dislocation, tumours removed rapidly frozen in liquid nitrogen and stored in small pieces at − 80 °C for subsequent fenretinide determination, protein and lipid analyses. All procedures were performed with the approval of the Ethics Committee for Animal Experimentation.

[1] abbreviates: colon cancer xenograft mice, Bio-nFeR 150 mg/kg, Suppl. Table 5.
Where [2] appears, read: colon cancer xenograft, Bio-nFeR 150 mg/kg, Suppl. Table 5.
Where [3] appears, read: lung cancer xenograft mice, Bio-nFeR 100 mg/kg, Suppl. Table 5.
The mark [4] stands for this setting: lung cancer xenograft, Bio-nFeR 100 mg/kg, Suppl. Table 5.
Setting [5] is: melanoma xenograft mice, Bio-nFeR 100 mg/kg, Suppl. Table 5.
Where [6] appears, read: melanoma xenograft, Bio-nFeR 100 mg/kg, Suppl. Table 5.

Structures are written as SMILES. Several values for one entry are separate records, joined by “and”; a condition that tells them apart may be missing. Equal entries are not always repeated. Where two headings read alike, the source gives them in different places.

We go through 3 compounds from article PMC6706930, “A novel oral micellar fenretinide formulation with enhanced bioavailability and antitumour activity against multiple tumours from cancer stem cells” (Journal of Experimental & Clinical Cancer Research : CR, 2019).

On to `CC1=C(/C=C/C(C)=C/C=C/C(C)=C/C(=O)Nc2ccc(O)cc2)C(C)(C)CCC1` [4-HPR, 4-hydroxy (phenyl)retinamide, reference compound], for which the concentration at 3 h was 1880 ng/g to 2230 ng/g and 4.8 µM to 5.7 µM (NOD-SCID (colon, melanoma), NSG (lung), tumour, both drug doses analyzed (Bio-nFeR 100 and 150 mg/kg), three xenograft models, read-out: intra-tumour concentration); 4.8 µM (NOD-SCID, colon cancer xenograft, Bio-nFeR 150 mg/kg, tumour density assumed =1, read-out: Mean 4-HPR concentration: Tumor); 5.4 µM (NOD-SCID, melanoma xenograft, Bio-nFeR 100 mg/kg, tumour density assumed =1, read-out: Mean 4-HPR concentration: Tumor); 4990 ng/mL (NOD-SCID, plasma, colon cancer xenograft mice, Bio-nFeR 150 mg/kg, Suppl. Table 5, read-out: Mean concentration (±sd), Plasma); 12.1 µM (NOD-SCID, plasma, colon cancer xenograft mice, Bio-nFeR 150 mg/kg, read-out: Mean 4-HPR concentration: Plasma); 1710 ng/mL (NOD-SCID, plasma, melanoma xenograft mice, Bio-nFeR 100 mg/kg, Suppl. Table 5, read-out: Mean concentration (±sd), Plasma). The concentration at 3 h (NOD-SCID, plasma, melanoma xenograft mice, Bio-nFeR 100 mg/kg, read-out: Mean 4-HPR concentration: Plasma) came out at 4.7 µM; the concentration at 3 h (NOD-SCID, tumour, colon cancer xenograft, Bio-nFeR 150 mg/kg, Suppl. Table 5, read-out: Mean concentration (±sd), Tumor) came out at 1880 ng/mL; the concentration at 3 h (NOD-SCID, tumour, colon cancer xenograft, Bio-nFeR 150 mg/kg, read-out: Mean 4-HPR concentration ± (sd): Tumor) was found to be 1880 ng/g; the concentration at 3 h (NOD-SCID, tumour, melanoma xenograft, Bio-nFeR 100 mg/kg, Suppl. Table 5, read-out: Mean concentration (±sd), Tumor) is 2130 ng/mL; the concentration at 3 h (NOD-SCID, tumour, melanoma xenograft, Bio-nFeR 100 mg/kg, read-out: Mean 4-HPR concentration ± (sd): Tumor) was 2130 ng/g; the concentration at 3 h (NSG, lung cancer xenograft, Bio-nFeR 100 mg/kg, tumour density assumed =1, read-out: Mean 4-HPR concentration: Tumor) was 5.7 µM. The concentration at 3 h (NSG, plasma, lung cancer xenograft mice, Bio-nFeR 100 mg/kg, Suppl. Table 5, read-out: Mean concentration (±sd), Plasma) stood at 3450 ng/mL; the concentration at 3 h (NSG, plasma, lung cancer xenograft mice, Bio-nFeR 100 mg/kg, read-out: Mean 4-HPR concentration: Plasma) was 8.8 µM; the concentration at 3 h (NSG, tumour, lung cancer xenograft, Bio-nFeR 100 mg/kg, Suppl. Table 5, read-out: Mean concentration (±sd), Tumor) stood at 2230 ng/mL; the concentration at 3 h (NSG, tumour, lung cancer xenograft, Bio-nFeR 100 mg/kg, read-out: Mean 4-HPR concentration ± (sd): Tumor) was 2230 ng/g.
As for `CC1=C(/C=C/C(C)=C/C=C/C(C)=C/C(=O)Nc2ccc(O)cc2)C(C)(C)CCC1=O` [4-oxo-4-HPR], the “Mean concentration (±sd), Plasma” value under setting [1] is 3519 (1319) ng/ml; the “Mean concentration (±sd), Plasma” value under setting [3] is listed as 2142 (374) ng/ml; the “Mean concentration (±sd), Plasma” value under setting [5] is on record as 1226 (220) ng/ml. In addition, the “Mean concentration (±sd), Tumor” value is, setting by setting: under setting [2], 2514 (189) ng/ml; under setting [4], 2028 (150) ng/ml; under setting [6], 2323(134) ng/ml.
Consider `COc1ccc(NC(=O)\C=C(C)/C=C/C=C(C)\C=C\C2=C(C)CCCC2(C)C)cc1` [MPR], for which the “Mean concentration (±sd), Plasma” value is recorded as 790 (261) ng/ml under setting [1], 394 (68) ng/ml under setting [3] and 190 (32) ng/ml under setting [5]. In addition, the “Mean concentration (±sd), Tumor” value is, setting by setting: under setting [2], 1090 (503) ng/ml; under setting [4], 2282 (598) ng/ml; under setting [6], 707 (476) ng/ml.
